A short description of this series: Stability in solution and in storage. Type of series: physicochemical.

One molecule from patent US5076973A, “Synthesis of dolastatin 3” (Arizona Board of Regents, priority 1988, dated 1991) can be followed below.

Turning to `CC(C)C[C@@H]1NC(=O)[C@@H]2CCCN2C(=O)[C@H](C(C)C)NC(=O)c2csc(n2)CNC(=O)c2csc(n2)[C@H](CCC(N)=O)NC1=O` [dolastatin 3, Cyclo-[L-Val-L-Pro-L-Leu-L-(gln)Thz-(gly)Thz]], the “Stability / decomposition in solution” value (in solution, especially in chloroform) was “tendency to undergo decomposition in solution”. Moreover, the Stability in storage entry (storage of isolated natural sample) is reported as “decomposed in storage”.
